Data set [1] concerns SK-N-MC cells. The data set can be described thus: MTT cellular proliferation assay, SK-N-MC neuroepithelioma cells. It counts as cell-based, human. The settings on record: for Therapeutic index SK-N-MC: IC50 of MRC-5 cells/IC50 of SK-N-MC cells, 72 h/37 °C; for IC50: SK-N-MC, 37 °C, MTT, mean ± SD (3 experiments). The procedure: (§1) The anti-proliferative activity of Dp4e4mT relative to its complexes with Fe(III), Co(III), Ni(II), Cu(II), Zn(II), Ga(III), and Pd(II) was examined over incubation periods of 24-, 48-, and 72 h/37 °C (Table 2). These studies were performed using human SK-N-MC neuroepithelioma and AsPC-1 pancreatic adenocarcinoma cells that we have previously examined to assay other ligands.[15,28,43] […]
(§2) All cell lines were procured from the American Type Culture Collection (ATCC; Manassas, VA). The SK-N-MC neuroepithelioma cell line and the mortal MRC-5 fibroblasts were cultured in minimum essential medium (Sigma-Aldrich), while the AsPC-1 cell line was cultured in Roswell Park Memorial Institute 1640 medium (Thermo Fisher Scientific, MA, USA). Both media were supplemented with 10% fetal calf serum, non-essential amino acids (1 mM), sodium pyruvate (1 mM), L-glutamine (2 mM), penicillin (100 U/mL), streptomycin (100 U/mL), and Fungizone (0.5 µg/mL). Cells were maintained at 37 °C in an incubator under a humidified atmosphere with 5% CO 2, following established protocols. 11 Cellular Proliferation Assay
(§3) Cellular proliferation was evaluated through the established 3-(4,5-dimethylthiazol-2-yl)-2,5-diphenyltetrazolium bromide (MTT) proliferation assay, validated by viable cell counts.12 […]
(§4) Ligands and complexes were dissolved in DMSO to make a stock solution of 10 mM, subsequently diluted in culture media. For cell culture experiments, the DMSO's maximum concentration remained below 0.5% (v/v), with no discernible impact on proliferation.12 MTT […]
(§5) Trypan blue staining.12 Analysis of the data was executed employing MARS Data Analysis Software (BMG LabTech; version 3.30). The concentration of agents necessary to inhibit cellular proliferation by 50% (IC 50) was then calculated. […]

Data set [2] concerns AsPC-1 cells. The data set can be described thus: MTT cellular proliferation assay, AsPC-1 pancreatic adenocarcinoma cells. As to conditions: for IC50: 37 °C, MTT, mean ± SD (3 experiments); for Therapeutic index AsPC-1: IC50 of MRC-5 cells/IC50 of AsPC-1 cells, 72 h/37 °C. Format: cell-based, human. The procedure:
as §1, §2, §3, §4, §5

Data set [3] deals with MRC-5 fibroblasts. Description: MTT cellular proliferation assay, mortal MRC-5 fibroblasts. The settings on record: 37 °C, mean ± SD (3 experiments). Format: cell-based. The procedure:
(§6) To examine the selectivity of the Dp4e4mT complexes against neoplastic versus normal mortal cells, their anti-proliferative efficacy was compared to mortal MRC-5 fibroblasts after a 72 h/37 °C incubation (Table 3). […] To further examine selectivity, an in vitro therapeutic index was calculated as per our previous investigations.[28,57,59,66,67] This parameter is derived from the ratio of the IC50 of MRC-5 cells/IC50 of SK-N-MC or AsPC-1 cells; with high ratios indicating greater selective anti-proliferative activity against neoplastic cells (Table 3). The mean therapeutic index is the average of the therapeutic indices calculated for both tumor cell-types. […] The mean therapeutic index of Dp4e4mT exceeded that obtained for clinically trialed DpC (157), as well as that of Dp44mT (112) and DFO (6). […]
as §2, §3, §4, §5

In data set [4] the test system is SK-N-MC and AsPC-1 cells. Description: MTT cellular proliferation assay, values stated over both tumor cell-types. Format: cell-based, human. As to conditions: for Mean therapeutic index: average of the therapeutic indices for SK-N-MC and AsPC-1 vs MRC-5, 72 h/37 °C. The procedure: The anti-proliferative activity of Dp4e4mT relative to its complexes with Fe(III), Co(III), Ni(II), Cu(II), Zn(II), Ga(III), and Pd(II) was examined over incubation periods of 24-, 48-, and 72 h/37 °C (Table 2). These studies were performed using human SK-N-MC neuroepithelioma and AsPC-1 pancreatic adenocarcinoma cells that we have previously examined to assay other ligands.[15,28,43]
as §6, §2, §3, §4, §5

Data set [5] addresses T1, oxy-Hb in intact human erythrocytes (Homo sapiens, UniProt P68871+P69905).
T1 construct: Physiologically, oxy-Hb is found in erythrocytes; endogenous in cells; host or cells: intact human erythrocytes from fresh blood of healthy donors
Description: Oxidation of oxy-Hb in intact human erythrocytes. It counts as cell-based. As to conditions: 10 μM, 3 h/37 °C. How it is done:
Fig. 7 (A and B) Investigation of the effects of Dp4e4mT and its Fe(III), Co(III), Ni(II), Cu(II), Zn(II), Ga(III), and Pd(II) complexes versus DFO, Dp44mT, DpC and their Fe(III) complexes (10 μM) on met-Hb generation (% zero time) after an incubation of 1–3 h/20 °C with purified oxy-Hb (40 μM). (C) Investigation of the effects of Dp4e4mT and its Fe(III), Co(III), Ni(II), Cu(II), Zn(II), Ga(III), or Pd(II) complexes relative to the positive controls DFO, Dp44mT, DpC, and their Fe(III) complexes (10 μM) on oxy-Hb oxidation in intact human erythrocytes after a 3 h/37 °C incubation. Results are mean ± SD (3 experiments).
Physiologically, oxy-Hb is found in erythrocytes, and in the current investigation, the ligands and complexes (10 μM) were incubated with intact human erythrocytes for 3 h/37 °C to assess their effects on oxy-Hb oxidation (Fig. 7C). As expected from our previous studies,[28,39] […]
In experiments examining the activity of the agents, all complexes were dissolved in 1,2-propanediol, then diluted to 10 µM in PBS (pH 7.2). […]
1800; Shimadzu, Kyoto, Japan). Concentrations of met-Mb and met-Hb, as well as reduced-Mb and reduced-Hb, were determined at 409 nm and 435 nm, respectively. Concentrations of oxy-Mb and oxy-Hb were determined at 544 nm and 582 nm, respectively. 17 Oxidation of Oxy-Hb in Human Erythrocytes
Oxidation of oxy-Hb in human erythrocytes was performed by standard methods using fresh blood from healthy donors after collection in Vacutainer® collection tubes (BD, Plymouth, UK).8 Erythrocytes centrifuged (480 xg/5 min/4°C) and then washed in HBSS, and subsequently resuspended in this buffer. Incubation of the erythrocytes (15% hematocrit) in the absence or presence of the agents (10 μM) was performed for 3 h/37°C. The erythrocytes were […]

T1 sequence (P69905 2-142 limits assumed): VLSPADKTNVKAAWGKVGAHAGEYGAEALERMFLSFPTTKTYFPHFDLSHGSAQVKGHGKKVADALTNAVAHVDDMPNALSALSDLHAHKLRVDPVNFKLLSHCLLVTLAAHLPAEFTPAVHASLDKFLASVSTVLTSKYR
T1 sequence (P68871 2-147 limits assumed): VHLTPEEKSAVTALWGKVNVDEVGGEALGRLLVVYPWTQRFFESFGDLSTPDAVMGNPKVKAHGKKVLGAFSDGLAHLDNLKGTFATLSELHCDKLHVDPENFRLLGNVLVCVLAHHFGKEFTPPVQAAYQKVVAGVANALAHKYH

For `CCN(C)C([S-])=NN=C(c1ccccn1)c1ccccn1.CCN(C)C([S-])=NN=C(c1ccccn1)c1ccccn1.[Cu+2]` [[Cu(Dp4e4mT)2]], the “Therapeutic index SK-N-MC” value in data set [1] is recorded as 85. Besides, the half-maximal inhibitory concentration (IC50) was found to be 516 ± 6 nM in data set [1] (24 h); 34 ± 6 nM in data set [1] (48 h); 4 ± 1 nM in data set [1] (72 h); 1140 ± 34 nM in data set [2] (AsPC-1, 24 h); 44 ± 7 nM in data set [2] (AsPC-1, 48 h); 3 ± 3 nM in data set [2] (AsPC-1, 72 h). In data set [3] (MRC-5, 72 h), this molecule returned an IC50 of 342 ± 121 nM. The “Therapeutic index AsPC-1” value in data set [2] worked out at 113. Moreover, the Mean therapeutic index in data set [4] was found to be 99. The “oxy-Hb oxidation in erythrocytes versus the control (in words)” value in data set [5] was “negligible effects on oxy-Hb oxidation”.
Consider `CC(=O)N(O)CCCCCNC(=O)CCC(=O)N(O)CCCCCNC(=O)CCC(=O)N(O)CCCCCN` [DFO, desferrioxamine, reference compound], for which the IC50 in data set [1] (Homo sapiens, 24 h) is over 100000 nM; in data set [1] (Homo sapiens, 48 h), 45270 ± 61 nM; in data set [1] (Homo sapiens, 72 h) it was 8180 ± 2460 nM; in data set [2] (Homo sapiens, ASPC1, AsPC-1, 24 h) it was over 100000 nM; in data set [2] (Homo sapiens, ASPC1, AsPC-1, 48 h), 22760 ± 84 nM; in data set [2] (Homo sapiens, ASPC1, AsPC-1, 72 h), 3070 ± 585 nM. The IC50 is 28910 ± 101 nM in data set [3] (Homo sapiens, MRC5, MRC-5, 72 h); 3070 to 8180 nM in data set [4] (Homo sapiens, SK-N-MC and AsPC-1, after 72 h, read-out: IC50 (range over both cell-types)). Moreover, in data set [1], the “Therapeutic index SK-N-MC” value is 3. Besides, the “Therapeutic index AsPC-1” value in data set [2] came to 9. The Mean therapeutic index in data set [4] was 6. In addition, the “oxy-Hb oxidation in erythrocytes versus the control (in words)” value in data set [5] is “did not induce any significant (p > 0.05) increase in oxy-Hb oxidation”.
